US20130029970A1 (priority 2009, published 2013)

Assays:
human CB2 (hCB2) = biological target: T1, human CB2 (hCB2) (Homo sapiens, UniProt P34972); experiment: 35S GTPγS binding assay, hCB2 agonist; assay type: biochemical
T1 construct: (cDNA clone) CNR0200000
Summary of the method: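 Agonist-stimulated [35S]GTPγS (0.1 nM) binding measured by scintillation proximity after 90 min at room temperature. Reaction buffer: 50 mM HEPES pH 7.4, 100 mM NaCl, 5 mM MgCl2, 0.001% saponin plus 20 uM GDP. Membranes (5 μg) came from transfected cells expressing hCB2 cDNA (pcDNA3.1+ vector).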

human CB2 receptors = biological target: T2, human CB2 receptors (Homo sapiens, UniProt P34972); experiment: cAMP assay in HEK-293 cells, hCB2 agonist; assay type: cell-based
T2 construct: (cDNA clone) CNR0200000
Summary of the method: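 Stable hCB2 HEK-293 cells in HBSS/10 mM HEPES/0.1% fatty-acid-free BSA incubated 30 min at 37° C with compound; forskolin 90 uM in 3× compound mix.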

T2 sequence (P34972 whole entry): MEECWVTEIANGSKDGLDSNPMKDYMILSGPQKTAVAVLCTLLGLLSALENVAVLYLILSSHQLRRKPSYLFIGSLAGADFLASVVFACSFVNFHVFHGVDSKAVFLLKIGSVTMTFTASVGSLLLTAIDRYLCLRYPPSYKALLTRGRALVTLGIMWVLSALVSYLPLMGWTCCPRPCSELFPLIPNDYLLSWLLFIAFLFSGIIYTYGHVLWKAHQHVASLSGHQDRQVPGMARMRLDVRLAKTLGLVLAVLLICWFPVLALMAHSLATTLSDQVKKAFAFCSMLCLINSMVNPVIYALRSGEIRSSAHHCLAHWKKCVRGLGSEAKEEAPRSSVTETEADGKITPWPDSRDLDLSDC
T1 sequence (P34972 whole entry): as above

## C=Cn1c(C)cc2cc(C(=O)c3cccc(Cl)c3Cl)sc21 [Comp 29]
Human CB2 (hCB2)
  EC50: 100 to 1000 nM
Human CB2 receptors
  EC50: 100 to 1000 nM

## Cc1cc2cc(C(=O)c3cccc(Cl)c3Cl)sc2n1CCN1CCOCC1 [Compound 1, (2,3-dichlorophenyl)(5-methyl-6-(2-morpholinoethyl)-6H-thieno[2,3-b]pyrrol-2-yl)methanone]
Human CB2 (hCB2)
  EC50: < 100 nM
Human CB2 receptors
  EC50: < 100 nM

## CCCn1c(C)cc2cc(C(=O)c3cccc(Cl)c3Cl)sc21 [Compound 3, (2,3-Dichlorophenyl)(5-methyl-6-propyl-6H-thieno[2,3-b]pyrrol-2-yl)methanone]
Human CB2 (hCB2)
  EC50: < 100 nM
Human CB2 receptors
  EC50: < 100 nM

## Cc1cc2cc(C(=O)c3ccccc3Cl)sc2n1CCN1CCOCC1 [Compound 5, (2-Chlorophenyl)(5-methyl-6-(2-morpholinoethyl)-61-1-thieno[2,3-b]pyrrol-2-yl)methanone]
Human CB2 (hCB2)
  EC50: < 100 nM
Human CB2 receptors
  EC50: < 100 nM

## Cc1cc2cc(C(=O)c3ccc(Cl)cc3)sc2n1CCN1CCOCC1 [Compound 6, (4-Chlorophenyl)(5-methyl-6-(2-morpholinoethyl)-6H-thieno[2,3-b]pyrrol-2-yl)methanone]
Human CB2 (hCB2)
  EC50: < 100 nM
Human CB2 receptors
  EC50: < 100 nM

## Cc1cc2cc(C(=O)c3cccc(F)c3F)sc2n1CCN1CCOCC1 [Compound 8, (2,3-Difluorophenyl)(5-methyl-6-(2-morpholinoethyl)-6H-thieno[2,3-b]pyrrol-2-yl)methanone]
Human CB2 (hCB2)
  EC50: 100 to 1000 nM
Human CB2 receptors
  EC50: < 100 nM

## Cc1cc2cc(C(=O)c3ccc(Cl)c(Cl)c3)sc2n1CCN1CCOCC1 [Compound 9, (3,4-Dichlorophenyl)(5-methyl-6-(2-morpholinoethyl)-6H-thieno[2,3-b]pyrrol-2-yl)methanone]
Human CB2 (hCB2)
  EC50: 1000 to 10000 nM
Human CB2 receptors
  EC50: 100 to 1000 nM

## Cc1cc2cc(C(=O)c3cccc4c3OCC4)sc2n1CCN1CCOCC1 [Compound 11, (2,3-Dihydrobenzofuran-7-yl)(5-methyl-6-(2-morpholinoethyl)-6H-thieno[2,3-b]pyrrol-2-yl)methanone]
Human CB2 (hCB2)
  EC50: < 100 nM
Human CB2 receptors
  EC50: < 100 nM

## COc1ccccc1C(=O)c1cc2cc(C)n(CCN3CCOCC3)c2s1 [Compound 13, (2-Methoxyphenyl)(5-methyl-6-(2-morpholinoethyl)-6H-thieno[2,3-b]pyrrol-2-yl)methanone]
Human CB2 (hCB2)
  EC50: < 100 nM
Human CB2 receptors
  EC50: < 100 nM

## Cc1cc2cc(C(=O)c3cccnc3Cl)sc2n1CCN1CCOCC1 [Compound 17, (2-Chloropyridin-3-yl)(5-methyl-6-(2-morpholinoethyl)-6H-thieno[2,3-b]pyrrol-2-yl)methanone]
Human CB2 (hCB2)
  EC50: 100 to 1000 nM
Human CB2 receptors
  EC50: < 100 nM

## Cc1cc2cc(C(=O)c3cccc(Cl)c3Cl)sc2n1CCC1CCOCC1 [Compound 18, (2,3-Dichlorophenyl)(5-methyl-6-(2-(tetrahydro-2H-pyran-4-yl)ethyl)-6H-thieno[2,3-b]pyrrol-2-yl)methanone]
Human CB2 (hCB2)
  EC50: < 100 nM
Human CB2 receptors
  EC50: < 100 nM

## COCCn1c(C)cc2cc(C(=O)c3cccc(Cl)c3Cl)sc21 [Compound 21, (2,3-Dichlorophenyl)(6-(2-methoxyethyl)-5-methyl-6H-thieno[2,3-b]pyrrol-2-yl)methanone]
Human CB2 (hCB2)
  EC50: < 100 nM
Human CB2 receptors
  EC50: < 100 nM

## Cc1cc2cc(C(=O)c3cccc(Cl)c3Cl)sc2n1CCN1CCCCC1 [Compound 23, (2,3-Dichlorophenyl)(5-methyl-6-(2-(piperidin-1-yl)ethyl)-6H-thieno[2,3-b]pyrrol-2-yl)methanone]
Human CB2 (hCB2)
  EC50: < 100 nM
Human CB2 receptors
  EC50: < 100 nM

## Cc1cc2cc(C(=O)c3cccc(Cl)c3Cl)sc2n1CC1CCCCN1C (stereo not shown) [Compound 24, (2,3-Dichlorophenyl)(5-methyl-6((1-methylpiperidin-2-yl)methyl)-6H-thieno[2,3-b]pyrrol-2-yl)methanone]
Human CB2 (hCB2)
  EC50: < 100 nM
Human CB2 receptors
  EC50: < 100 nM

## Cc1cc2cc(C(=O)c3cccc(Cl)c3Cl)sc2n1CCN1CCCC1 [Compound 28, (2,3-Dichlorophenyl)(5-methyl-6-(2-(pyrrolidin-1-yl)ethyl)-6H-thieno[2,3-b]pyrrol-2-yl)methanone]
Human CB2 (hCB2)
  EC50: < 100 nM
Human CB2 receptors
  EC50: < 100 nM

## COc1ccc(C(=O)c2cc3cc(C)n(CCN4CCOCC4)c3s2)cc1 [Compound 36, (4-methoxyphenyl)(5-methyl-6-(2-morpholinoethyl)-6H-thieno[2,3-b]pyrrol-2-yl)methanone]
Human CB2 (hCB2)
  EC50: < 100 nM
Human CB2 receptors
  EC50: < 100 nM

## Cc1cc2cc(C(=O)c3cccc(Cl)c3Cl)sc2n1S(=O)(=O)N(C)C [Compound 41, 2-(2,3-Dichlorobenzoyl)-N,N,5-trimethyl-6H-thieno[2,3-b]pyrrole-6-sulfonamide]
Human CB2 (hCB2)
  EC50: < 100 nM
Human CB2 receptors
  EC50: < 100 nM

## Cc1cc2cc(C(=O)c3ccccc3N)sc2n1CCN1CCOCC1 [Compound 48, (2-Aminophenyl)(5-methyl-6-(2-morpholinoethyl)-6H-thieno[2,3-b]pyrrol-2-yl)methanone]
Human CB2 (hCB2)
  EC50: < 100 nM
Human CB2 receptors
  EC50: < 100 nM

## COCCn1c(C)cc2cc(C(=O)c3ccc(OC)cc3)sc21 [Compound 49, (6-(2-Methoxyethyl)-5-methyl-6H-thieno[2,3-b]pyrrol-2-yl)(4-methoxyphenyl)methanone]
Human CB2 (hCB2)
  EC50: 100 to 1000 nM
Human CB2 receptors
  EC50: 100 to 1000 nM

## COc1ccc(C(=O)c2cc3cc(C)n(CCN4CCOC4=O)c3s2)cc1 [Compound 50, 3-(2-(2-(4-Methoxybenzoyl)-5-methyl-6H-thieno[2,3-b]pyrrol-6-yl)ethyl)oxazolidin-2-one]
Human CB2 (hCB2)
  EC50: 1000 to 10000 nM
Human CB2 receptors
  EC50: < 100 nM

## CCOc1ccc(C(=O)c2cc3cc(C)n(CCN4CCOCC4)c3s2)cc1 [Compound 55, (4-Ethoxyphenyl)(5-methyl-6-(2-morpholinoethyl)-6H-thieno[2,3-b]pyrrol-2-yl)methanone]
Human CB2 (hCB2)
  EC50: < 100 nM
Human CB2 receptors
  EC50: < 100 nM

## Cc1cc2cc(C(=O)c3ccc(N(C)C)cc3)sc2n1CCN1CCOCC1 [Compound 59, (4-(Dimethylamino)phenyl)(5-methyl-6-(2-morpholinoethyl)-6H-thieno[2,3-b]pyrrol-2-yl)methanone]
Human CB2 (hCB2)
  EC50: 100 to 1000 nM
Human CB2 receptors
  EC50: 100 to 1000 nM

## Cc1cc2cc(C(=O)c3ccc(F)cc3Cl)sc2n1CCN1CCOCC1 [Compound 64, (2-Chloro-4-fluorophenyl)(5-methyl-6-(2-morpholinoethyl)-6H-thieno[2,3-b]pyrrol-2-yl)methanone]
Human CB2 (hCB2)
  EC50: < 100 nM
Human CB2 receptors
  EC50: < 100 nM

## Cc1cc2cc(C(=O)c3ccc(OC(F)(F)F)cc3)sc2n1CCN1CCOCC1 [Compound 65, (5-Methyl-6-(2-morpholinoethyl)-6H-thieno[2,3-b]pyrrol-2-yl)(4-(trifluoromethoxy)phenyl)methanone]
Human CB2 (hCB2)
  EC50: 100 to 1000 nM
Human CB2 receptors
  EC50: 100 to 1000 nM

## COc1ccc(C(=O)c2cc3cc(C)n(CCN4CCOCC4)c3s2)c(F)c1 [Compound 68, (2-Fluoro-4-methoxyphenyl)(5-methyl-6-(2-morpholinoethyl)-6H-thieno[2,3-b]pyrrol-2-yl)methanone]
Human CB2 (hCB2)
  EC50: < 100 nM
Human CB2 receptors
  EC50: < 100 nM

## COc1ccc(C(=O)c2cc3cc(C)n(CCNS(C)(=O)=O)c3s2)cc1 [Compound 71, N-(2-(2-(4-Methoxybenzoyl)-5-methyl-6H-thieno[2,3-b]pyrrol-6-yl)ethyl)methanesulfonamide]
Human CB2 (hCB2)
  EC50: 100 to 1000 nM
Human CB2 receptors
  EC50: 100 to 1000 nM

## CCOC(=O)CCn1c(C)cc2cc(C(=O)c3ccc(OC)cc3)sc21 [Compound 72, Ethyl 3-(2-(4-methoxybenzoyl)-5-methyl-6H-thieno[2,3-b]pyrrol-6-yl)propanoate]
Human CB2 (hCB2)
  EC50: 100 to 1000 nM
Human CB2 receptors
  EC50: 100 to 1000 nM

## Cc1ccc(C(=O)c2cc3cc(C)n(CCN4CCOCC4)c3s2)c(F)c1 [Compound 80, (2-Fluoro-4-methylphenyl)(5-methyl-6-(2-morpholinoethyl)-6H-thieno[2,3-b]pyrrol-2-yl)methanone]
Human CB2 (hCB2)
  EC50: < 100 nM
Human CB2 receptors
  EC50: < 100 nM

## COc1ccc(C(=O)c2cc3cc(C)n(CCN4CCCC4)c3s2)cc1 [Compound 83, (4-Methoxyphenyl)(5-methyl-6-(2-(pyrrolidin-1-yl)ethyl)-6H-thieno[2,3-b]pyrrol-2-yl)methanone]
Human CB2 (hCB2)
  EC50: 100 to 1000 nM
Human CB2 receptors
  EC50: < 100 nM

## COc1ccc(C(=O)c2cc3cc(C)n(CCN4CCOCC4)c3s2)c(C)c1 [Compound 88, (4-Methoxy-2-methylphenyl)(5-methyl-6-(2-morpholinoethyl)-6H-thieno[2,3-b]pyrrol-2-yl)methanone]
Human CB2 (hCB2)
  EC50: < 100 nM
Human CB2 receptors
  EC50: < 100 nM

## CCOc1ccc(C(=O)c2cc3cc(C)n(CCN4CCOCC4)c3s2)c(F)c1 [Compound 89, (4-Ethoxy-2-fluorophenyl)(5-methyl-6-(2-morpholinoethyl)-6H-thieno[2,3-b]pyrrol-2-yl)methanone]
Human CB2 (hCB2)
  EC50: < 100 nM
Human CB2 receptors
  EC50: < 100 nM

## COc1ccc(C(=O)c2cc3cc(C)n(CCN4CCCCC4)c3s2)c(Cl)c1 [Compound 90, (2-Chloro-4-methoxyphenyl)(5-methyl-6-(2-(piperidin-1-yl)ethyl)-6H-thieno[2,3-b]pyrrol-2-yl)methanone]
Human CB2 (hCB2)
  EC50: < 100 nM
Human CB2 receptors
  EC50: < 100 nM

## COc1ccc(C(=O)c2cc3cc(C)n(CCN4CCCC4)c3s2)c(F)c1 [Compound 92, (2-Fluoro-4-methoxyphenyl)(5-methyl-6-(2-(pyrrolidin-1-yl)ethyl)-6H-thieno[2,3-b]pyrrol-2-yl)methanone]
Human CB2 (hCB2)
  EC50: < 100 nM
Human CB2 receptors
  EC50: < 100 nM

## COc1ccc(C(=O)c2cc3cc(C)n(CCN4CCCC4)c3s2)c(Cl)c1 [Compound 93, (2-Chloro-4-methoxyphenyl)(5-methyl-6-(2-(pyrrolidin-1-yl)ethyl)-6H-thieno[2,3-b]pyrrol-2-yl)methanone]
Human CB2 (hCB2)
  EC50: < 100 nM
Human CB2 receptors
  EC50: < 100 nM

## COc1ccc(C(=O)c2cc3cc(C)n(CCCNS(C)(=O)=O)c3s2)c(C)c1 [Compound 96, N-(3-(2-(4-Methoxy-2-methylbenzoyl)-5-methyl-6H-thieno[2,3-b]pyrrol-6-yl)propyl)methanesulfonamide]
Human CB2 (hCB2)
  EC50: < 100 nM
Human CB2 receptors
  EC50: < 100 nM
